Test results as given in article PMC12226413, “Downregulation of O‐GlcNAcylation enhances etoposide‐induced p53‐mediated apoptosis in HepG2 human liver cancer cells” (FEBS Open Bio, 2025).

Legend:
[1] = biological target: T1, Recombinant human OGT protein (O-GlcNAc transferase) (Homo sapiens, UniProt O15294); experiment: UDP-Glo glycosyltransferase assay (luminescence); assay type: biochemical; details: UDP-GlcNAc and peptide KKKYPGGSTPVSSANMM as substrates; 25 mM Tris pH 7.5, 12.5 mM MgCl2, 0.06 mg/mL BSA, 1 mM DTT; unreliable
T1 construct: recombinant human OGT from R&D Systems
T1 sequence (O15294 2-1046): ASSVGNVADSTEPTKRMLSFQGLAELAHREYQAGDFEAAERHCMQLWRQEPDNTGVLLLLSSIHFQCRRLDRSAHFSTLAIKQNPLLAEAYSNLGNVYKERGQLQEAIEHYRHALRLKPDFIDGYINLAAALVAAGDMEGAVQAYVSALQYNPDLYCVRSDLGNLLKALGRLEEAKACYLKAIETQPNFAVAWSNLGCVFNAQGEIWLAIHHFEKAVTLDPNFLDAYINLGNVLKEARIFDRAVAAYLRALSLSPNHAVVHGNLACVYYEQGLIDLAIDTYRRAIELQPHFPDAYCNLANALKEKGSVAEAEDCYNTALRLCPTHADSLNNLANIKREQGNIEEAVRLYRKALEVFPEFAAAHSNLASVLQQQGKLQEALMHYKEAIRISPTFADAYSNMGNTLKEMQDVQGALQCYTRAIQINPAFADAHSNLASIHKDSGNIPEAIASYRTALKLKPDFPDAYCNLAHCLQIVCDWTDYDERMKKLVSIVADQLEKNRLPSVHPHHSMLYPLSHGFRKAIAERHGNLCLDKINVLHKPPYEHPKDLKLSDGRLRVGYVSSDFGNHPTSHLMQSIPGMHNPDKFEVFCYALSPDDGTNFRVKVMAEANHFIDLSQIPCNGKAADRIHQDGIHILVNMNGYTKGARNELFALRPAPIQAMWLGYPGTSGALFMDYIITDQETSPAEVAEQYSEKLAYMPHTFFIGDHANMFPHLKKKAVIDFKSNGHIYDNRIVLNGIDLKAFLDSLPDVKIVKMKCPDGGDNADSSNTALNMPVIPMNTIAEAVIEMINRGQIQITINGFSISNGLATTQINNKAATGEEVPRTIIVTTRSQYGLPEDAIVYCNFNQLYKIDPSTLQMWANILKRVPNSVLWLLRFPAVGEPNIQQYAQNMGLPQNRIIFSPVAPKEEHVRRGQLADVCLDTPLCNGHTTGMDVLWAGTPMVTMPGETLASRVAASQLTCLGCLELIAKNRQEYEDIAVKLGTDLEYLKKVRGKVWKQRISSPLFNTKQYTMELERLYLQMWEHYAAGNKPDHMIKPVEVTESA

[2] = biological target: T1, Recombinant human OGT protein (O-GlcNAc transferase); experiment: UDP-Glo glycosyltransferase assay (luminescence); assay type: biochemical

| % inhibition at 400 μM [1] | IC50 [2] | Compound |
| --- | --- | --- |
| ~ 47.3% |  | COc1cc([C@@H]2c3cc4c(cc3[C@@H](O[C@@H]3O[C@@H]5CO[C@@H](C)O[C@H]5[C@H](O)[C@H]3O)[C@H]3COC(=O)[C@H]23)OCO4)cc(OC)c1O [Etoposide] |
|  | 4.47 µM | COc1ccccc1[C@@H](NS(=O)(=O)c1ccc2[nH]c(=O)ccc2c1)C(=O)N(Cc1ccco1)Cc1cccs1 [OSMI-1] |
